Test systems include KM12 colon; SK-MEL-2 melanoma; NCI-H23 lung; SK-OV-3 ovarian; ACHN renal; HOP-92 NSCLC; DU-145 prostate; A549 NSCLC; SF-539 CNS; 786-0 renal.
Common to all, as to assay: NCI anticancer screen, dose series, 48 h

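Dose response: 5 concentrations. Exposure: 48 h. Format: 96-well plates. Endpoint: linear interpolation; highest concentration if not reached. Here, GI50 denotes the concentration required for 50% inhibition of growth. Definition used: TGI = concentration required for complete inhibition of growth.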 Bounds are passed on as bounds.

Regarding `CCc1ccc(-c2ccc(=O)n(-c3ccc(S(N)(=O)=O)cc3)n2)cc1`, the GI50 in the assay on KM12 colon is 0.68 µM; with SK-MEL-2 melanoma it was 5.04 µM; with NCI-H23 lung, 11.9 µM; in the assay on SK-OV-3 ovarian it was 4.44 µM; with ACHN renal, above 32.4 µM; in the assay with HOP-92 NSCLC it was 5.55 µM. The GI50 is 21.3 µM in the assay with DU-145 prostate, 3.14 µM with A549 NSCLC, 3.15 µM in the assay with SF-539 CNS and 11.7 µM in the assay with 786-0 renal. For the same compound, the TGI in the assay with KM12 colon is above 100 µM; in the assay with SK-MEL-2 melanoma, 38.9 µM; with NCI-H23 lung it was above 100 µM; with SK-OV-3 ovarian it was above 100 µM; in the assay on ACHN renal, above 100 µM; in the assay with HOP-92 NSCLC it was 43.1 µM. In addition, the TGI in the assay on DU-145 prostate is above 100 µM; in the assay on A549 NSCLC, above 100 µM; with SF-539 CNS, 32.1 µM; in the assay with 786-0 renal, above 79.8 µM.
For `NC(=O)C(Br)CBr` (centres undefined), the GI50 in the assay with KM12 colon is 7.63 µM; in the assay with SK-MEL-2 melanoma it was 2.26 µM; in the assay with NCI-H23 lung, 1.74 µM; with SK-OV-3 ovarian, 12 µM; with ACHN renal it was 0.816 µM; in the assay on HOP-92 NSCLC, 1.39 µM. The GI50 with DU-145 prostate was 2.26 µM; with A549 NSCLC, 3.71 µM; in the assay on SF-539 CNS, 3.01 µM; with 786-0 renal, 5.65 µM. Moreover, the TGI in the assay on KM12 colon was 21 µM; in the assay with NCI-H23 lung, 3.42 µM; in the assay on SK-OV-3 ovarian, 25.1 µM; in the assay on ACHN renal, 2.18 µM; in the assay on HOP-92 NSCLC, 3.1 µM; in the assay on DU-145 prostate it was 5.72 µM. Further, the TGI stood at 10.6 µM in the assay on A549 NSCLC, 10.3 µM in the assay with SF-539 CNS and 16.1 µM in the assay on 786-0 renal.
Consider `COc1ccc(C(O)c2cc3c(N)c(C(=O)Nc4cccc(Cl)c4C)sc3nc2C)cc1` (centres undefined), for which the GI50 was 0.865 µM with KM12 colon; 0.909 µM with SK-MEL-2 melanoma; 0.926 µM in the assay on NCI-H23 lung; 0.988 µM in the assay with SK-OV-3 ovarian; 0.877 µM in the assay on ACHN renal; 0.618 µM with HOP-92 NSCLC. Also, the GI50 with DU-145 prostate is 0.929 µM; in the assay with A549 NSCLC, 0.933 µM; in the assay on SF-539 CNS, 0.818 µM; in the assay with 786-0 renal, 0.786 µM. The TGI came out at 1.68 µM with KM12 colon; 1.84 µM with SK-MEL-2 melanoma; 1.8 µM with NCI-H23 lung; 2.09 µM in the assay on SK-OV-3 ovarian; 1.63 µM in the assay on ACHN renal; 1.68 µM with HOP-92 NSCLC. For the same compound, the TGI in the assay with DU-145 prostate turned out to be 1.85 µM; in the assay with A549 NSCLC it was 2.02 µM; with SF-539 CNS, 1.54 µM; in the assay on 786-0 renal, 1.53 µM.
Consider `CSc1ccc(-c2cc(-c3ccc(NC(=O)CCCN4CCCC4)cc3)nc(-c3ccc(NC(=O)CCCN4CCCC4)cc3)c2)cc1`, for which the GI50 with KM12 colon was 1.87 µM; in the assay with SK-MEL-2 melanoma, 4.58 µM; in the assay with NCI-H23 lung, 1.67 µM; in the assay on SK-OV-3 ovarian, 2.97 µM; with ACHN renal it was 3.65 µM; with HOP-92 NSCLC it was 1.72 µM. Besides, the GI50 is 4.1 µM in the assay on DU-145 prostate, 1.67 µM with A549 NSCLC, 2.52 µM with SF-539 CNS and 6.88 µM in the assay on 786-0 renal. The TGI in the assay on KM12 colon was determined as 3.3 µM; in the assay with SK-MEL-2 melanoma, 19.2 µM; with NCI-H23 lung, 3.16 µM; in the assay with SK-OV-3 ovarian it was 8.74 µM; with ACHN renal it was 13.9 µM; in the assay on HOP-92 NSCLC, 5.61 µM. In addition, the TGI in the assay on DU-145 prostate stood at 13.3 µM; in the assay with A549 NSCLC, 3.17 µM; in the assay with SF-539 CNS, 7.54 µM; with 786-0 renal it was 23.9 µM.
Turning to `COc1ccc(Nc2ccnc(NCCNc3ccnc4cc(Cl)ccc34)n2)cc1`, the GI50 was 3.72 µM in the assay on KM12 colon; 2.25 µM with SK-MEL-2 melanoma; 2.75 µM with NCI-H23 lung; 7.21 µM with SK-OV-3 ovarian; 2.27 µM with ACHN renal; 1 µM in the assay on HOP-92 NSCLC. Further, the GI50 in the assay with DU-145 prostate is 5.03 µM; in the assay with A549 NSCLC, 3.67 µM; in the assay with SF-539 CNS, 1.59 µM; in the assay on 786-0 renal it was 1.87 µM. The TGI with KM12 colon worked out at 15.2 µM; in the assay on SK-MEL-2 melanoma it was 4.11 µM; with NCI-H23 lung, 14.9 µM; in the assay with SK-OV-3 ovarian it was 20.5 µM; with ACHN renal, 6.06 µM; in the assay with HOP-92 NSCLC, 6.34 µM. Besides, the TGI with DU-145 prostate came out at 17.6 µM; with A549 NSCLC, 13.7 µM; in the assay on SF-539 CNS it was 3.2 µM; in the assay on 786-0 renal it was 4.33 µM.
As to `CCON=C1C(C)(C)C(C)(C)C(C)(C)C1(C)C`, the TGI in the assay with KM12 colon, in the assay with SK-MEL-2 melanoma, in the assay on NCI-H23 lung, in the assay with SK-OV-3 ovarian, with ACHN renal and with HOP-92 NSCLC was above 100 µM each time. The TGI in the assay with DU-145 prostate, with A549 NSCLC, in the assay on SF-539 CNS and in the assay on 786-0 renal was above 100 µM in each case.
Turning to `O=C(Nc1ncc(Cc2ccccc2)s1)c1ccc2c(c1)OCCCO2`, the GI50 was 0.372 µM in the assay with KM12 colon; 1.36 µM in the assay on SK-MEL-2 melanoma; 2.43 µM in the assay with NCI-H23 lung; 3.17 µM with SK-OV-3 ovarian; 0.644 µM in the assay with ACHN renal; above 24 µM with HOP-92 NSCLC. Further, the GI50 in the assay with DU-145 prostate was 2.3 µM; in the assay with A549 NSCLC, 0.725 µM; with SF-539 CNS, 0.49 µM; in the assay on 786-0 renal it was 2.44 µM. In addition, the TGI with KM12 colon, in the assay on SK-MEL-2 melanoma, in the assay with NCI-H23 lung, in the assay on SK-OV-3 ovarian, in the assay on ACHN renal and in the assay with HOP-92 NSCLC was above 100 µM each time. Besides, the TGI with DU-145 prostate was above 100 µM; in the assay with A549 NSCLC it was above 100 µM; in the assay on SF-539 CNS, 4.27 µM; in the assay with 786-0 renal it was above 100 µM.
On to `C[C@@H]1COCCN1c1nc(-c2cnc(N)cc2C(F)F)nc(N2[C@H](C)COC[C@@H]2C)n1`, for which the GI50 in the assay with KM12 colon is 0.423 µM; with SK-MEL-2 melanoma it was 0.382 µM; in the assay with NCI-H23 lung, 0.267 µM; in the assay on SK-OV-3 ovarian it was 0.166 µM; in the assay with ACHN renal, 0.265 µM; in the assay with HOP-92 NSCLC it was 0.09 µM. For the same compound, the GI50 is 0.336 µM with DU-145 prostate, 0.235 µM in the assay on A549 NSCLC, 0.264 µM with SF-539 CNS and 0.272 µM in the assay on 786-0 renal. In addition, the TGI turned out to be 13.8 µM in the assay on KM12 colon; 7.62 µM with SK-MEL-2 melanoma; 15.7 µM with NCI-H23 lung; 1.34 µM with SK-OV-3 ovarian; 11.8 µM with ACHN renal; 1.14 µM with HOP-92 NSCLC. The TGI in the assay with DU-145 prostate was found to be 14.5 µM; in the assay with A549 NSCLC, 12.1 µM; in the assay on SF-539 CNS, 6.66 µM; in the assay on 786-0 renal, 12.5 µM.
For `Nc1c(C(=O)c2cccc(-c3ccc[n+]([O-])c3)c2)cnn1-c1ccc(F)cc1F`, the GI50 in the assay on KM12 colon, in the assay with SK-MEL-2 melanoma, in the assay on NCI-H23 lung, in the assay with SK-OV-3 ovarian, in the assay on ACHN renal and in the assay on HOP-92 NSCLC was above 25 µM each time. The GI50 in the assay on DU-145 prostate, in the assay on A549 NSCLC, with SF-539 CNS and in the assay with 786-0 renal was above 25 µM throughout. The TGI in the assay with KM12 colon, with SK-MEL-2 melanoma, with NCI-H23 lung, in the assay with SK-OV-3 ovarian, in the assay on ACHN renal and in the assay on HOP-92 NSCLC was above 25 µM in each case. The TGI with DU-145 prostate, in the assay with A549 NSCLC, in the assay on SF-539 CNS and with 786-0 renal was above 25 µM each time.
Turning to `OCc1cccc(-c2ccc3ncc(-c4nc(NC5CC5)ncc4F)n3c2)c1`, the GI50 in the assay on KM12 colon was 0.222 µM; in the assay on SK-MEL-2 melanoma it was 0.244 µM; with NCI-H23 lung it was 0.281 µM; in the assay with SK-OV-3 ovarian, 0.448 µM; in the assay on ACHN renal, 0.134 µM; with HOP-92 NSCLC it was 0.303 µM. Besides, the GI50 was 0.287 µM in the assay with DU-145 prostate, 0.341 µM in the assay with A549 NSCLC, 0.162 µM in the assay on SF-539 CNS and 0.347 µM with 786-0 renal. The TGI in the assay with KM12 colon amounted to 1.21 µM; with SK-MEL-2 melanoma it was 0.671 µM; in the assay with NCI-H23 lung, 1.19 µM; in the assay with SK-OV-3 ovarian, 7.06 µM; with ACHN renal, 1.24 µM; with HOP-92 NSCLC it was 0.901 µM. The TGI in the assay with DU-145 prostate was 1.83 µM; in the assay with A549 NSCLC, above 100 µM; in the assay with SF-539 CNS it was 0.454 µM; with 786-0 renal, 3.03 µM.
As for `c1cc(C2CCCCC2)ccc1OCCCCCCN1CCNCC1`, the GI50 with KM12 colon is 1.98 µM; in the assay with SK-MEL-2 melanoma, 1.82 µM; with NCI-H23 lung, 1.96 µM; with SK-OV-3 ovarian, 4.16 µM; in the assay with ACHN renal, 1.78 µM; in the assay with HOP-92 NSCLC, 1.55 µM. Also, the GI50 in the assay with DU-145 prostate is 1.88 µM; with A549 NSCLC it was 1.92 µM; with SF-539 CNS, 1.78 µM; in the assay on 786-0 renal, 2.31 µM. Besides, the TGI turned out to be 3.55 µM in the assay with KM12 colon; 3.71 µM in the assay on SK-MEL-2 melanoma; 3.82 µM in the assay on NCI-H23 lung; 15.2 µM in the assay on SK-OV-3 ovarian; 3.33 µM in the assay on ACHN renal; 5.23 µM with HOP-92 NSCLC. The TGI is 3.42 µM with DU-145 prostate, 3.65 µM with A549 NSCLC, 3.25 µM in the assay with SF-539 CNS and 5.31 µM in the assay on 786-0 renal.

These data come from PubChem BioAssay (NCI).
